This is an account of results in PMC9220251, “Modulation of the 20S Proteasome Activity by Porphyrin Derivatives Is Steered through Their Charge Distribution” (Biomolecules, 2022).

The target of test [1] is T1, human 20S proteasome (h20S).
T1 construct: gene PSMA6; purified 20S core particle, purchased from Boston Biochem; 28 subunits in four heptameric rings; no regulatory particle; with Proteasome subunit beta type-6; Proteasome subunit beta type-7; Proteasome subunit beta type-3; Proteasome subunit beta type-2; Proteasome subunit beta type-1; Proteasome subunit beta type-4
The test can be described thus: Suc-LLVY-AMC hydrolysis, global fit of kcat and Km against TMPC (two-state model, n = […], m = […]). Particulars: competitive inhibitory site, substrate-free enzyme in basal state A; model also has three cooperative allosteric sites and state B with separate constants (KAU, KAL, KBU, KBL, KBI); 50 mM Tris-HCl pH. The class given is biochemical.

Test [2] concerns T1, human 20S proteasome (h20S). Put plainly: STD-NMR and WaterLOGSY. It counts as binding. Particulars: 50 mM HEPES, 100 mM NaCl, 1 mM DTT, 298 K; TMPC 175 μM.

pKd: −log10 of the molar value.

For the compound `C[n+]1ccc(-c2c3nc(c(-c4cc[n+](C)cc4)c4ccc([nH]4)c4ccc([nH]4)c(-c4cc[n+](C)cc4)c4ccc2[nH]4)C=C3)cc1` [TMPC], the pKd in test [1] was 6.00. Further, the “STD-NMR and WaterLOGSY” value in test [2] is on record as “clearly indicate that the ligand interacts with the h20S”.

In general, pKd refers to the negative decadic logarithm of the Kd, by convention in mol/L.
